This is an account of results in patent US20090317419A1, “Tetramers” (Duke University, priority 2008, published 2009).

Ends that are not written are not given here. * marks the point of attachment. Biotin = O=C1N[C@H]2[C@H](CS[C@H]2CCCCC(=O)*)N1

The subject of assay [1] is total naïve splenic BALB/c B cells. As to conditions: APC-labeled tetramer. On the procedure: (§1) Cell isolation, serum collection, and PBMC isolations. Heparinized or non-heparanized blood was collected sub-mandibularly 10 days after immunizations. For preparation of peripheral blood lymphocytes for B cell tetramer analysis, PBMC were isolated from blood collected in heparinized tubes (0.2 ml) using Lympholyte M (Cederlane). For Luminex and ELISA assays, sera was isolated from non-heparanized blood and stored at −20° C. until use. Spleen, bone marrow (BM), and peritoneal cavity (PerC) cells were also collected. For most immunizations, tissues were harvested after the 4th boost, except for kinetic studies, in which tissues from mice were harvested after 1, 3 or 7 days after a single immunization. For BM preparations, femora and tibiae were removed, aspirated with tissue medium using 23 gauge needles, filtered with 70 μm cell strainers (BD labware), and RBC-depleted using Tris-buffered ammonium chloride lysis. For splenocyte preparation, spleens were harvested and dissociated into single-cell suspensions either by passage through 70 μm cell strainers in tissue medium or by using frosted glass slides, and blood erythrocytes were depleted with ammonium chloride lysis. For isolation of peritoneal cells, peritoneal cavities of sacrificed mice were lavaged by injection with 10 ml of PBS, followed by gentle massage of the abdomen, and withdrawal of the peritoneal exudates. BM, splenic, and peritoneal single cell suspensions were centrifuged at 1500 rpm for 5 min and resuspended in 5, 10, and 1 ml of tissue media, respectively, for cell counts and immunofluorescence staining. Cell counts were performed in duplicate on a Coulter ZI Dual Threshold Cell Counter (Coulter).
(§2) Antibodies and flow cytometry. Immunofluorescent staining of single cell suspensions (≧2×10^6) was conducted using pre-mixed combinations of fluorochrome-labeled antibodies and APC-conjugated B cell tetramers at empirically-determined optimal concentrations. All antibodies were from BD unless otherwise stated. […] Other reagents included biotinylated antibodies against dump channel markers: Thy1 (Ox7; Abcam), F4/80 (BM8; Abcam), CD11c (clone HL3), Gr-1 (clone RB6-8C5), TER-119, and NK-1.1 (clone PK136), secondary staining SA-Texas Red conjugate; v-amine live/dead violet dye (Molecular Probes), and Fc block (anti-CD16/32; clone 2.4G2).
(§3) Staining was conducted at 4° C. in several sequential steps in FACS staining buffer (1×PBS with 2% FCS, 0.1% NaN3), washing twice between steps. First, cells were incubated with v-amine live/dead dye for 15 min. Next, cells were stained with APC-labeled tetramers for 30 min. Where applicable, this was preceded by addition of cold tetramer at 10 fold molar excess for 1 h. Finally, cells were stained with Fc block for 30 min, followed by incubation with combinations of primary antibody cocktails for 30 min, and secondary staining with SA-Texas Red for 30 min.
(§4) Data were acquired using an LSRII flow cytometer and Cell Quest software (BD Immunocytometry systems). A minimum of 250000 events were acquired per sample. FACS Analysis was performed using FlowJo software (Tree Star). For analysis, single cells were positively gated based on their forward scatter height vs. forward scatter area and side scatter height vs. side scatter area profiles, lymphocytes were then positively gated based on their forward and side scatter profile (live lymphocyte gate), residual dead cells were excluded with negative gating on v-amine live/dead dye, and all irrelevant non-B cells were excluded with negative gating on dump markers Thy1, F4/80, CD11c, Gr-1, TER-119, and NK-1.1.

In assay [2] the test system is mAb cell lines P3X63/Ag8, F39F, 7B2, 13H11. The settings on record: flow cytometry, all Ig+ cell lines tested. On the procedure:
(§5) Use of antibody-coated beads and cell lines for tetramer quality control. Tetramer stocks were diluted to twice the desired final concentration in PBS containing 1% BSA. An equal volume of beads or cells at 5×10^5 up to 2×10^6 per sample were mixed with tetramer and incubated (4° C.×30 min). Beads or cells were washed with PBS+1% BSA before being fixed in 2% methanol-free formaldehyde (Polysciences, Inc, Warrington, Pa.) in PBS. Samples were stored at 4° C. prior to being analyzed by flow cytometry (BD LSR II, Becton Dickinson, Mountain View, Calif.). Data were analyzed using FlowJo (Tree Star, Ashland, Oreg.). For tetramer titration 40-80 ng tetramer per 10^6 cells/beads was serially diluted over 8-12 points. Optimal concentrations determined by this method were used for subsequent experiments. For cold competition experiments the incubation step was performed by staining with 10-fold excess unlabeled tetramer (4° C.×30 min) prior to the addition of APC-labeled tetramer. For cell dilution experiments, a mixture of mAb cell lines was made and then 1:10 serial dilutions of cells prepared. For cross competition experiments, mixtures of cells were prepared and then stained singly with anti-IgG reagents or tetramer, or the cells were doubly stained with both reagents either sequentially or concurrently.
(In general: In flow cytometry, cells or beads pass a laser one at a time.)

Assay [3] deals with antibody coated beads (P3X63/Ag8, A32, 7B9, F39F, 7B2, 13H11, 2F5). The settings on record: flow cytometry, all antibody coated beads tested. On the procedure: (§6) Antibody-coated beads. Carboxyl-polystyrene beads (3.0-3.4 μm) (Spherotech, Inc., Lake Forest, Ill.) were resuspended in 0.01 M sodium acetate buffer (pH 5.0) and reacted (20° C.×1 hr) with 1-ethyl-3-(3-dimethylaminopropyl) carbodiimide hydrochloride (EDC) (Sigma-Aldrich, Co., St. Louis, Mo.) at a ratio of 3.1 mg beads to 1 mg EDC. Beads were washed with sodium acetate buffer, resuspended in a minimal volume before adding purified mAb in the same buffer (ratio of 16 mg beads to 1 mg mAb), incubated (20° C.×2 hrs), then washed with sodium acetate buffer. Beads were resuspended at 5% in PBS containing 1% bovine serum albumin and 0.02% sodium azide.
as §5

Assay [4] has as its target gp41 MPER tetramer. Description: SPR, captured mAb, tetramer injected.
Assay [5] deals with gp41 MPER tetramer. Briefly: flow cytometry, gp41 MPER tetramer on a mixture of 15% 13H11 hybridoma cells and 85% F39F cells (FIG. 4B); the value follows the mixing ratio.
gp41 MPER tetramer, sequence (P22629 37-163 limits assumed): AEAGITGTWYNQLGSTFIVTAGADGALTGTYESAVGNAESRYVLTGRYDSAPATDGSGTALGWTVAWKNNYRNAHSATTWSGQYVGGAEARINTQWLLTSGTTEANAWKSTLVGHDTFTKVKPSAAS
Assay [6] concerns the target gp41 MPER tetramer. Briefly: flow cytometry, gp41 MPER tetramer on the 13H11 / F39F cell mixture diluted a hundredfold in all with F39F cells (FIG. 4D); the value follows the mixing ratio.
The target in assay [7] is gp41 MPER tetramer. Description: flow cytometry, gp41 MPER tetramer on the 15% 13H11 / 85% F39F cell mixture diluted tenfold with F39F cells (FIG. 4C); the value follows the mixing ratio.
Assay [8] can be described thus: gp41 HR2 peptide immunization, serum anti-2F5 epitope Ab ELISA, C57BL/6. The class given is in vivo, C57BL/6 mice. The settings on record: C57BL/6, peptide in Emulsigen + oCpG, i.p., ELISA 10 days after each immunization. As to the method:
(§7) Peptide immunogen formulation, dose, route of immunization, and immunization schedule. The peptide immunogen used was a gp41 heptad repeat-2 (HR2) DP 1 78Q16L peptide ([…]), synthesized and purified from Primm, and verified to be >95% purified as determined by mass spectrometry. Lyophilized peptide immunogens stored at 4° C. (Primm Biotechnology) were reconstituted by dissolving in DMSO at 8 mg/ml and bringing up to 1 mg/ml in saline. Adjuvanting was done by dissolving mouse oCpG, (5′-[…]-3′; Midland Certified Reagent Company) in saline at 1 mg/ml and first mixing with Oil/water Emulsigen (MVP laboratories) in saline, then with peptide, such as to create a final mixture of 50 μg/ml oCpG, 125 μg/ml peptide, 10% Emulsigen (for i.p. immunizations) and 200 μg/ml oCpG, 500 μg/ml peptide, 10% Emulsigen (for i.m. immunizations). Immunization primes and boosts were all done at a single site intraperitoneally using a volume of 200 μl of the above formulation, such that mice in all instances were injected with 25 μg peptide and 10 μg oCpG. Mice were primed for 10 days and then boosted four times, every 14 days.
(§8) Cell isolation, serum collection, and PBMC isolations.
(§9) ELISA assays. […] Optical density was read at 405 nm with a BioRad 680 microplate reader. […]
(In an ELISA, binding on a coated surface is turned into a signal by an enzyme label.)

Assay [9] in a line: gp41 HR2 peptide immunization, serum anti-2F5 epitope Ab ELISA, BALB/c. The class given is in vivo, BALB/c mice. The settings on record: peptide in Emulsigen + oCpG, i.p., ELISA 10 days after each immunization. As to the method: as §7, §8, §9
In assay [10] the test system is mAb F39F (anti-gp120 V3). As to conditions: SPR, mAb F39F captured, 25° C., PBS pH 7.4. On the procedure:
Surface Plasmon Resonance (SPR) measurements of tetramer binding to peptide epitopes. Tetramer binding assays were carried out on a BIAcore 3000 (BIAcore/GE Healthcare, Piscataway, N.J.) instrument using mAbs against each specific B cell epitope.
Each mAb (about 1000 RU) was first captured on anti-human Fc mAb (Pierce, Rockford, Ill.) immobilized on a CM5 sensor chip. Approximately 3000 RU of anti-human Fc mAb was covalently coupled to each flow cell of the sensor chip as described before (Alam et al, Journal of Immunology 178:4424-4435 (2007)). Each B cell tetramer was injected over its epitope specific mAb or a control surface immobilized with irrelevant mAb. For each tetramer binding curve, non-specific binding signals obtained from the control surface were subtracted. The binding assay was monitored at 25° C. and using PBS, pH 7.4, as the running buffer. The BIAevaluation 3.0 software (BIAcore/GE Healthcare, Piscataway, N.J.) was used for SPR binding data analyses.
(In general: In SPR one partner is held on a chip, and binding of the other changes the refractive index at the surface.)

The test system of assay [11] is mAb 7B9 (anti-gp120 V3 62.19). The settings on record: SPR, mAb 7B9 captured.
Assay [12] has as its system total naïve splenic C57BL/6 B cells. The settings on record: C57BL/6, APC-labeled tetramer. On the procedure: as §1, §2, §3, §4
In assay [13] the test system is F39F cells. The settings on record: flow cytometry. As to the method:
as §5

Assay [14] has as its system mixture of F39F cells and P3X63/Ag8 cells. As to conditions: 6% F39F cells, 94% P3X63/Ag8 cells; sequential or simultaneous staining. As to the method: as §5
The subject of assay [15] is V3 loop mAbs 7B9 and F39F on beads. As to conditions: flow cytometry. On the procedure:
as §6, §5

For the substance “Biotin-GGGGGDWEYSVWLSN [dsDNA mimic tetramer]”, the “binding to total naïve splenic B cells” value in assay [1] was “no significant binding above background”. In addition, in [2], the “binding to mAb cell lines” value was “no cell line bound”. The “binding to any antibody on beads” value in assay [3] is reported as “did not bind”.

For the substance 13H11 (antibody), in assay [4], the koff was found to be 0.0081 s⁻¹ and the kon is 206000 M⁻¹ s⁻¹. Also, the percent of cells of the mixture stained with the tetramer in assay [5] turned out to be 15.1%. Further, the percent of cells of the mixture stained with the tetramer over background in [6] turned out to be 0.12%. For the same substance, the percent of cells of the mixture stained with the tetramer in assay [7] came to 1.47%.

For the substance enfuvirtide, the “anti-2F5 serum Ab titers” value in assay [8] is recorded as “no appreciable anti-2F5 serum Ab titers”. In addition, the “anti-2F5 serum Ab response” value in [9] is listed as “robust anti-2F5 serum Ab responses”.

“Biotin-GGGTRPNNNTRKSIHIGPGRAFYATE [62.19 V3 tetramer]”: the koff is reported as 0.60 s^−1 × 10^−3 in assay [10] and 0.19 s^−1 × 10^−3 in [11]. Moreover, the values for the kon in [10] and in [11] were 60.5 M^−1s^−1 × 10^3 and 35.6 M^−1s^−1 × 10^3, respectively. The “binding to total naïve splenic B cells” value in assay [12] and in assay [1] was “minimal binding” in each case. Besides, the “binding to mAb cell line” value in assay [13] is “bound”. Also, the “effect of PE labeled anti-IgG heavy chain reagent on tetramer binding” value in assay [14] is on record as “does not inhibit”. Also, the “binding to antibody-coated beads” value in [15] is “bound to both V3 loop mAbs 7B9 and F39F”.
